Drawing on ChEMBL document CHEMBL3046598, “In vitro antimicrobial and molecular docking of dichloro substituted benzoxazole derivatives” (2012), this text covers MIC for seven compounds.

In brackets after ≈: the same amount, converted by molar mass.

One test relates to Escherichia coli. Nature of the test: Antibacterial activity against Escherichia coli NCIM 5051 after 24 hr by agar well diffusion method. Format: functional. The conditions noted are these: NCIM 5051, 24 h.
By MIC is commonly meant the least concentration at which growth counts as inhibited. The low end stands for greater potency, the high end for weaker potency. In turn, `Sc1nc2cc(Cl)cc(Cl)c2o1` displayed an MIC of 3.12 µg/mL (≈ 14.2 µM).
`CCOC(=O)CSc1nc2cc(Cl)cc(Cl)c2o1` registered an MIC of 6.25 µg/mL (≈ 20.4 µM).
The compound `NNc1nc2cc(Cl)cc(Cl)c2o1` showed an MIC of 50 µg/mL (≈ 229 µM).
As to `S=c1[nH]nc2oc3c(Cl)cc(Cl)cc3n12`, the MIC is 3.12 µg/mL (≈ 12 µM).
Regarding `CCOC(=O)CSc1nnc2oc3c(Cl)cc(Cl)cc3n12`, the lowest concentration to inhibit growth (MIC) was 3.12 µg/mL (≈ 9.03 µM).
`O=C(O)c1cn(C2CC2)c2cc(N3CCNCC3)c(F)cc2c1=O` [CIPROFLOXACIN] registered an MIC of 3.12 µg/mL (≈ 9.43 µM).

For a further test, the system named is Bacillus subtilis. Nature of the test: Antibacterial activity against Bacillus subtilis NCIM 2920 after 24 hr by agar well diffusion method. In kind it is functional. The following applies: NCIM 2920, 24 h. In general terms: In agar diffusion tests the substance spreads into inoculated agar from a disc or well.
Compound `Sc1nc2cc(Cl)cc(Cl)c2o1` gave an MIC of 6.25 µg/mL (≈ 28.4 µM).
`CCOC(=O)CSc1nc2cc(Cl)cc(Cl)c2o1` had an MIC of 3.12 µg/mL (≈ 10.2 µM).
The compound `NNc1nc2cc(Cl)cc(Cl)c2o1` displayed an MIC of 6.25 µg/mL (≈ 28.7 µM).
Compound `S=c1[nH]nc2oc3c(Cl)cc(Cl)cc3n12` yielded an MIC of 3.12 µg/mL (≈ 12 µM).
On to `CCOC(=O)CSc1nnc2oc3c(Cl)cc(Cl)cc3n12`, for which it took 3.12 µg/mL (≈ 9.03 µM) to inhibit growth (MIC).
In the case of `O=[N+]([O-])c1ccc(NCn2nc3oc4c(Cl)cc(Cl)cc4n3c2=S)cc1`, the MIC came to 6.25 µg/mL (≈ 15.2 µM).
Consider `O=C(O)c1cn(C2CC2)c2cc(N3CCNCC3)c(F)cc2c1=O` [CIPROFLOXACIN], for which the lowest concentration to inhibit growth (MIC) was 3.12 µg/mL (≈ 9.43 µM).

A further test concerns Pseudomonas aeruginosa. Nature of the test: Antibacterial activity against Pseudomonas aeruginosa NCIM 2945 after 24 hr by agar well diffusion method. The conditions noted are these: NCIM 2945, 24 h. In kind it is functional.
As for `Sc1nc2cc(Cl)cc(Cl)c2o1`, it took 3.12 µg/mL (≈ 14.2 µM) to inhibit growth (MIC).
`CCOC(=O)CSc1nc2cc(Cl)cc(Cl)c2o1` registered an MIC of 3.12 µg/mL (≈ 10.2 µM).
The compound `S=c1[nH]nc2oc3c(Cl)cc(Cl)cc3n12` showed an MIC of 3.12 µg/mL (≈ 12 µM).
In turn, `CCOC(=O)CSc1nnc2oc3c(Cl)cc(Cl)cc3n12` displayed an MIC of 3.12 µg/mL (≈ 9.03 µM).
On to `O=[N+]([O-])c1ccc(NCn2nc3oc4c(Cl)cc(Cl)cc4n3c2=S)cc1`, for which it took 3.12 µg/mL (≈ 7.62 µM) to inhibit growth (MIC).
Compound `O=C(O)c1cn(C2CC2)c2cc(N3CCNCC3)c(F)cc2c1=O` [CIPROFLOXACIN] registered an MIC of 3.12 µg/mL (≈ 9.43 µM).

The subject of another test is Salmonella typhi. Briefly: Antibacterial activity against Salmonella enterica subsp. enterica serovar Typhi ATCC 19430 after 24 hr by agar well diffusion method. Format: functional. The conditions noted are these: ATCC 19430, 24 h.
The compound `Sc1nc2cc(Cl)cc(Cl)c2o1` gave an MIC of 50 µg/mL (≈ 227 µM).
Still for that read-out and setting: then `S=c1[nH]nc2oc3c(Cl)cc(Cl)cc3n12`, with 50 µg/mL (≈ 192 µM); and `CCOC(=O)CSc1nnc2oc3c(Cl)cc(Cl)cc3n12`, with 50 µg/mL (≈ 144 µM).
The compound `O=C(O)c1cn(C2CC2)c2cc(N3CCNCC3)c(F)cc2c1=O` [CIPROFLOXACIN] came in with an MIC of 6.25 µg/mL (≈ 18.9 µM).

Another test has as its system Proteus vulgaris. Nature of the test: Antibacterial activity against Proteus vulgaris NCIM 2857 after 24 hr by agar well diffusion method. In kind it is functional. The following applies: NCIM 2857, 24 h.
As for `Sc1nc2cc(Cl)cc(Cl)c2o1`, 3.12 µg/mL (≈ 14.2 µM) was the least that counted as inhibitory (MIC).
Compound `CCOC(=O)CSc1nc2cc(Cl)cc(Cl)c2o1` came in with an MIC of 6.25 µg/mL (≈ 20.4 µM).
`NNc1nc2cc(Cl)cc(Cl)c2o1` displayed an MIC of 3.12 µg/mL (≈ 14.3 µM).
`S=c1[nH]nc2oc3c(Cl)cc(Cl)cc3n12` displayed an MIC of 6.25 µg/mL (≈ 24 µM).
The same measure, in the same setting: then `CCOC(=O)CSc1nnc2oc3c(Cl)cc(Cl)cc3n12`, with 3.12 µg/mL (≈ 9.03 µM).
As to `O=[N+]([O-])c1ccc(NCn2nc3oc4c(Cl)cc(Cl)cc4n3c2=S)cc1`, the MIC worked out at 6.25 µg/mL (≈ 15.2 µM).
In the case of `O=C(O)c1cn(C2CC2)c2cc(N3CCNCC3)c(F)cc2c1=O` [CIPROFLOXACIN], the MIC came to 3.12 µg/mL (≈ 9.43 µM).

Another test has as its system Staphylococcus aureus. Briefly: Antibacterial activity against Staphylococcus aureus NCIM 5022 after 24 hr by agar well diffusion method. In kind it is functional. The following applies: NCIM 5022, 24 h.
Regarding `Sc1nc2cc(Cl)cc(Cl)c2o1`, the MIC stood at 25 µg/mL (≈ 114 µM).
Still for that read-out and setting: then `CCOC(=O)CSc1nc2cc(Cl)cc(Cl)c2o1`, with 25 µg/mL (≈ 81.7 µM); and `NNc1nc2cc(Cl)cc(Cl)c2o1`, with 6.25 µg/mL (≈ 28.7 µM).
In turn, `S=c1[nH]nc2oc3c(Cl)cc(Cl)cc3n12` returned an MIC of 3.12 µg/mL (≈ 12 µM).
Turning to `CCOC(=O)CSc1nnc2oc3c(Cl)cc(Cl)cc3n12`, 6.25 µg/mL (≈ 18.1 µM) was the least that counted as inhibitory (MIC).
`O=[N+]([O-])c1ccc(NCn2nc3oc4c(Cl)cc(Cl)cc4n3c2=S)cc1` had an MIC of 3.12 µg/mL (≈ 7.62 µM).
`O=C(O)c1cn(C2CC2)c2cc(N3CCNCC3)c(F)cc2c1=O` [CIPROFLOXACIN] yielded an MIC of 3.12 µg/mL (≈ 9.43 µM).
